Experimental data from PubChem BioAssay AID248 (DTP/NCI, 2004).
Where “and” joins values, the source holds several entries; their conditions need not be identical. Identical values can stand only once. Inconclusive results and toxic doses are left out. No stated cut-off is given here; in the data, active means T/C of 150% or more; inactive means T/C below 125%.

Test system: L1210 leukemia ip in BDF1 mice, survival T/C
Assay: NCI In Vivo Anticancer Drug Screen. Data for tumor model L1210 Leukemia (intraperitoneal) in B6D2F1 (BDF1) mice
Settings: endpoint: mean survival time, higher = longer survival
Summary of the method: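 Value reflects the ratio of survival in compound-treated mice to survival in vehicle-treated controls, with both groups carrying the same transplanted tumor.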

[1] = dose: 100.0 mg/kg/injection, schedule: Q04DX002 (ip), vehicle: Klucel (hydroxypropylcellulose) (HPC)
[2] = dose: 200.0 mg/kg/injection, schedule: Q04DX002 (ip), vehicle: Klucel (hydroxypropylcellulose) (HPC)
[3] = dose: 400.0 mg/kg/injection, schedule: Q04DX002 (ip), vehicle: Klucel (hydroxypropylcellulose) (HPC)
[4] = dose: 100.0 mg/kg/injection, schedule: Q01DX001 (ip), vehicle: other
[5] = dose: 200.0 mg/kg/injection, schedule: Q01DX001 (ip), vehicle: other
[6] = dose: 400.0 mg/kg/injection, schedule: Q01DX001 (ip), vehicle: other
[7] = dose: 100.0 mg/kg/injection, schedule: Q01DX009 (ip), vehicle: Klucel (hydroxypropylcellulose) (HPC)
[8] = dose: 200.0 mg/kg/injection, schedule: Q01DX009 (ip), vehicle: Klucel (hydroxypropylcellulose) (HPC)
[9] = dose: 100.0 mg/kg/injection, schedule: Q01DX001 (ip), vehicle: saline with Tween-80
[10] = dose: 100.0 mg/kg/injection, schedule: Q01DX009 (ip), vehicle: saline with Tween-80
[11] = dose: 200.0 mg/kg/injection, schedule: Q01DX009 (ip), vehicle: saline with Tween-80
[12] = dose: 400.0 mg/kg/injection, schedule: Q01DX009 (ip), vehicle: saline with Tween-80
[13] = dose: 100.0 mg/kg/injection, schedule: Q04DX003 (ip), vehicle: saline
[14] = dose: 200.0 mg/kg/injection, schedule: Q04DX003 (ip), vehicle: saline
[15] = dose: 400.0 mg/kg/injection, schedule: Q04DX003 (ip), vehicle: saline
[16] = dose: 100.0 mg/kg/injection, schedule: Q01DX001 (ip), vehicle: saline
[17] = dose: 200.0 mg/kg/injection, schedule: Q01DX001 (ip), vehicle: saline
[18] = dose: 400.0 mg/kg/injection, schedule: Q01DX001 (ip), vehicle: saline
[19] = dose: 50.0 mg/kg/injection, schedule: Q04DX003 (ip), vehicle: saline
[20] = dose: 200.0 mg/kg/injection, schedule: Q01DX001 (ip), vehicle: saline with Tween-80

Measured: T/C

Cc1nc(-c2ccccc2)no1
inactive: dose: 75.0 mg/kg/injection, schedule: Q01DX009 (ip), vehicle: Klucel (hydroxypropylcellulose) (HPC) 102 % of control | [1] 97 % of control | dose: 150.0 mg/kg/injection, schedule: Q01DX009 (ip), vehicle: Klucel (hydroxypropylcellulose) (HPC) 98 % of control | [2] 102 % of control | dose: 300.0 mg/kg/injection, schedule: Q01DX009 (ip), vehicle: Klucel (hydroxypropylcellulose) (HPC) 101 % of control | [3] 97 % of control

O=C(O)c1c(O)c(Br)cc(Br)c1O
inactive: [4] 109 % of control | [5] 104 % of control | [6] 90 % of control

Nc1ccccc1C(=O)N/N=C/c1ccc(Cl)cc1Cl
inactive: [7] 89 % of control | [1] 95 % of control | [8] 98 % of control | [2] 102 % of control | [3] 104 % of control

CC(Br)(c1ccccc1)[P+](c1ccccc1)(c1ccccc1)c1ccccc1 (stereo not given)
inactive: dose: 15.0 mg/kg/injection, schedule: Q01DX001 (ip), vehicle: carboxymethylcellulose (CMC) 96 % of control | dose: 30.0 mg/kg/injection, schedule: Q01DX001 (ip), vehicle: carboxymethylcellulose (CMC) 101 % of control

COc1ncnc2c1nnn2C1OC(CO)C(O)C1O (stereo not given)
inactive: dose: 25.0 mg/kg/injection, schedule: Q01DX001 (ip), vehicle: saline with Tween-80 102 % of control | [9] 104 % of control

NNC(=O)Nc1cccnc1
inactive: dose: 75.0 mg/kg/injection, schedule: Q01DX009 (ip), vehicle: saline 106 % of control

O=C(O)c1cc(-c2ccc(N(CCCl)CCCl)cc2)nc2ccccc12
inactive: [4] 104 % of control | [5] 104 % of control | [6] 96 % of control

CCOC(=O)/C=C/Oc1cc(Cl)c(Cl)cc1Cl
inactive: [10] 110 % of control | [11] 92 % of control | [12] 93 % of control

O=C(OCCOCCOCCOCCOCCOCCOCCOCCOCCOCCOCCOCCOCCOCCOCCOCCOCCOCCOCCOCCOCCOCCOC(=O)N1CC1)N1CC1
inactive: dose: 100.0 mg/kg/injection, schedule: Q01DX001 (ip), vehicle: acetone 94 % of control | dose: 100.0 mg/kg/injection, schedule: Q01DX009 (ip), vehicle: acetone 98 % of control | [13] 100 % of control | dose: 200.0 mg/kg/injection, schedule: Q01DX001 (ip), vehicle: acetone 94 % of control | dose: 200.0 mg/kg/injection, schedule: Q01DX009 (ip), vehicle: acetone 95 % of control | [14] 103 % of control | dose: 400.0 mg/kg/injection, schedule: Q01DX001 (ip), vehicle: acetone 97 % of control | [15] 108 % of control

COc1cc(CC(=O)O)ccc1OCc1ccccc1
inactive: [10] 101 % of control | [11] 101 % of control | [12] 116 % of control

CCC(CC)C(=O)NC(=O)NC(C)=O
inactive: dose: 75.0 mg/kg/injection, schedule: Q01DX001 (ip), vehicle: Klucel (hydroxypropylcellulose) (HPC) 91 % of control | dose: 150.0 mg/kg/injection, schedule: Q01DX001 (ip), vehicle: Klucel (hydroxypropylcellulose) (HPC) 102 % of control | dose: 300.0 mg/kg/injection, schedule: Q01DX001 (ip), vehicle: Klucel (hydroxypropylcellulose) (HPC) 88 % of control

CCOCCOC(=O)c1ccc(C#N)cc1
inactive: [16] 100 % of control | [17] 97 % of control | [18] 97 % of control

O=C(N/N=C/c1ccc(Cl)cc1)C(O)c1ccccc1 (stereo not given)
inactive: [7] 87 % of control | [8] 87 % of control | dose: 400.0 mg/kg/injection, schedule: Q01DX009 (ip), vehicle: Klucel (hydroxypropylcellulose) (HPC) 89 % of control

CCCNC(=O)Nc1ccc(OCC)cc1
inactive: [1] 105 % of control | [2] 115 % of control | [3] 105 % of control

NCCN1C(c2ccccc2)C1c1ccccc1 (stereo not given)
inactive: [19] 94 % of control | [13] 94 % of control and 105 % of control | [14] 103 % of control | [15] 100 % of control

Nc1ccc(Nc2cc(S(=O)(=O)O)c(N)c3c2C(=O)c2ccccc2C3=O)cc1
inactive: [16] 97 % of control | [18] 93 % of control

Nc1cccc(OCCCCOc2cccc(N)c2)c1
inactive: dose: 50.0 mg/kg/injection, schedule: Q01DX009 (ip), vehicle: saline with Tween-80 93 % of control | [10] 101 % of control | [11] 107 % of control

CC[N+](CC)(CC)Cc1ccccc1
inactive: dose: 6.25 mg/kg/injection, schedule: Q01DX009 (ip), vehicle: Klucel (hydroxypropylcellulose) (HPC) 104 % of control | dose: 6.25 mg/kg/injection, schedule: Q04DX003 (ip), vehicle: saline 113 % of control | dose: 12.5 mg/kg/injection, schedule: Q01DX009 (ip), vehicle: Klucel (hydroxypropylcellulose) (HPC) 107 % of control | dose: 12.5 mg/kg/injection, schedule: Q04DX003 (ip), vehicle: saline 97 % of control | dose: 25.0 mg/kg/injection, schedule: Q01DX001 (ip), vehicle: saline 96 % of control and 100 % of control | dose: 25.0 mg/kg/injection, schedule: Q01DX009 (ip), vehicle: Klucel (hydroxypropylcellulose) (HPC) 98 % of control and 100 % of control | dose: 25.0 mg/kg/injection, schedule: Q04DX003 (ip), vehicle: saline 97 % of control and 100 % of control | dose: 50.0 mg/kg/injection, schedule: Q01DX001 (ip), vehicle: saline 98 % of control and 102 % of control | [19] 98 % of control

NC(CCCc1ccccc1)C(=O)O (stereo not given)
inactive: dose: 50.0 mg/kg/injection, schedule: Q04DX003 (ip), vehicle: Klucel (hydroxypropylcellulose) (HPC) 98 % of control | dose: 100.0 mg/kg/injection, schedule: Q04DX003 (ip), vehicle: Klucel (hydroxypropylcellulose) (HPC) 96 % of control | dose: 200.0 mg/kg/injection, schedule: Q04DX003 (ip), vehicle: Klucel (hydroxypropylcellulose) (HPC) 88 % of control | dose: 400.0 mg/kg/injection, schedule: Q04DX003 (ip), vehicle: Klucel (hydroxypropylcellulose) (HPC) 94 % of control

Cc1cc(C)c2c(C#N)cn(-c3cccc([N+](=O)[O-])c3)c2n1
inactive: dose: 50.0 mg/kg/injection, schedule: Q01DX001 (ip), vehicle: saline with Tween-80 98 % of control | [9] 103 % of control | [20] 95 % of control | [17] 87 % of control

Cc1cc(Cc2cc(C)cc(C(C)(C)C)c2O)c(O)c(Cc2cc(C)cc(C(C)(C)C)c2O)c1
inactive: dose: 100.0 mg/kg/injection, schedule: Q01DX009 (ip), vehicle: gum acacia 97 % of control | dose: 100.0 mg/kg/injection, schedule: Q04DX003 (ip), vehicle: gum acacia 91 % of control | dose: 200.0 mg/kg/injection, schedule: Q01DX009 (ip), vehicle: gum acacia 96 % of control | dose: 200.0 mg/kg/injection, schedule: Q04DX003 (ip), vehicle: gum acacia 96 % of control | dose: 400.0 mg/kg/injection, schedule: Q01DX009 (ip), vehicle: gum acacia 94 % of control | dose: 400.0 mg/kg/injection, schedule: Q04DX003 (ip), vehicle: gum acacia 96 % of control

Cc1cc(=O)[nH]c(C(F)(F)F)n1
inactive: dose: 44.0 mg/kg/injection, schedule: Q01DX Z (ip), vehicle: methylcellulose (MC) 93 % of control | dose: 66.0 mg/kg/injection, schedule: Q01DX Z (ip), vehicle: methylcellulose (MC) 107 % of control | dose: 100.0 mg/kg/injection, schedule: Q01DX Z (ip), vehicle: methylcellulose (MC) 102 % of control

O=C(O)c1ccc(CCc2ccc(Cl)c(S(=O)(=O)F)c2)cc1
inactive: [9] 94 % of control | [20] 92 % of control | dose: 400.0 mg/kg/injection, schedule: Q01DX001 (ip), vehicle: saline with Tween-80 91 % of control

CCCCNC(c1ccc(C=NC(CC)(CO)CO)cc1)C(Br)(Br)Br (stereo not given)
inactive: [16] 92 % of control | dose: 100.0 mg/kg/injection, schedule: Q01DX009 (ip), vehicle: saline 88 % of control | [17] 92 % of control | dose: 200.0 mg/kg/injection, schedule: Q01DX009 (ip), vehicle: saline 90 % of control | [18] 97 % of control | dose: 400.0 mg/kg/injection, schedule: Q01DX009 (ip), vehicle: saline 91 % of control

CCOc1cc(-c2nc(-c3ccc(N=Cc4ccc(N(CCCOS(C)(=O)=O)CCCOS(C)(=O)=O)cc4)cc3)cs2)ccc1OCc1ccccc1
inactive: [10] 92 % of control | [11] 94 % of control | [12] 92 % of control
